Measured values taken from PMC7053212, “Auger radiopharmaceutical therapy targeting prostate-specific membrane antigen in a micrometastatic model of prostate cancer” (Theranostics, 2020).
Entries after “also recorded” stand apart in the source; their conditions may differ. Like-named read-outs stand apart in the source and are kept apart here.

Key:
[1] = Long-term toxicity evaluation and necropsy, non-tumor-bearing mice; format: in vivo, CD1 mice
Method: Urinalysis evaluating specific gravity and urine protein levels via dipstick (Chemstrip Test Strips, Roche Diagnostics) was performed monthly for each animal. Terminal clinical and anatomic pathology was done in the Johns Hopkins Phenotyping and Comparative Pathology Core. Assessments included serum metabolic panel, blood counts, and complete necropsy with histopathology of more than 30 tissues as described previously.

[2] = Long-term biodistribution in normal tissues of non-tumor-bearing mice; format: in vivo, CD1 mice; settings: 18.5 MBq iv, mean
Method: Comparison between tumor and kidney uptake was performed using Student's t-test.

[3] = set-up: method as in PMID 27230930; settings: cited from earlier work
[4] = test system: PSMA-positive micrometastatic PC model; set-up: method as in PMID 27230930; settings: 740 kBq; cited from earlier work
metastatic PC = test system: metastatic PC; set-up: method as in PMID 23863050; settings: cited from earlier work
[5] = test system: epidermal growth factor receptor-positive metastatic breast cancer; set-up: method as in PMID 24753984; settings: activities up to 2.3 GBq; cited from earlier work
[6] = any activity up to 111 MBq, 12 months

O=C(O)CCC(NC(=O)NC(CCCCNC(=O)c1ccc([125I])cc1)C(=O)O)C(=O)O (stereo not shown) [^125I-DCIBzL]
Average blood urea nitrogen ([1]; 111 MBq, necropsy at 12 months): 14.5 mg/dL
Average creatinine ([1]; 111 MBq, necropsy at 12 months): 0.4 mg/dL
Maximum tolerated dose (MTD) ([1]; CD1 mice, 12 months): at least 111 MBq
Maximum tolerated dose (MTD) ([1]; activities up to 111 MBq iv, 12 months): not reached
Death from toxicity [1, 6]: No mouse treated with any activity of ^125I-DCIBzL died from toxicity
Long-term toxicity (weight, urinalysis, necropsy) [1, 6]: no appreciable toxicity; also recorded: no acute or long-term toxicity was noted; also recorded: no long-term toxicities were noted
Renal histopathology ([1]; highest activities, 12 months): mild renal tubule epithelial hypertrophic changes with occasional atypia
Average hemoglobin at necropsy ([1]; treated mice, 12 months): 12.8 g/dL
Long-term hematologic toxicity (histopathology of spleen, bone marrow, lymph nodes) ([1]; treated mice, 12 months): not noted
Late nephropathy on necropsy ([1]; up to 111 MBq, 12 months): no evidence of late nephropathy
Changes in body weight or urine protein levels ([1]; up to 111 MBq, 12 months, vs untreated): no consistent changes
% Injected Dose/gram Bladder ([2]; 2 weeks): 0.15 % Injected Dose/gram
% Injected Dose/gram Blood ([2]; 2 weeks): 0.01 % Injected Dose/gram
% Injected Dose/gram Heart ([2]; 2 weeks): 0.05 % Injected Dose/gram
% Injected Dose/gram Large intestine ([2]; 2 weeks): 0.05 % Injected Dose/gram
% Injected Dose/gram Liver ([2]; 2 weeks): 0.05 % Injected Dose/gram
% Injected Dose/gram Lung ([2]; 2 weeks): 0.31 % Injected Dose/gram
% Injected Dose/gram Muscle ([2]; 2 weeks): 0.05 % Injected Dose/gram
% Injected Dose/gram Pancreas ([2]; 2 weeks): 0.07 % Injected Dose/gram
% Injected Dose/gram Salivary gland ([2]; 2 weeks): 0.13 % Injected Dose/gram
% Injected Dose/gram Small intestine ([2]; 2 weeks): 0.03 % Injected Dose/gram
% Injected Dose/gram Spleen ([2]; 2 weeks): 0.77 % Injected Dose/gram
% Injected Dose/gram Stomach ([2]; 2 weeks): 0.05 % Injected Dose/gram
% Injected Dose/gram Bladder ([2]; 4 weeks): 0.06 % Injected Dose/gram
% Injected Dose/gram Blood ([2]; 4 weeks): 0.00 % Injected Dose/gram
% Injected Dose/gram Heart ([2]; 4 weeks): 0.02 % Injected Dose/gram
% Injected Dose/gram Large intestine ([2]; 4 weeks): 0.02 % Injected Dose/gram
% Injected Dose/gram Liver ([2]; 4 weeks): 0.02 % Injected Dose/gram
% Injected Dose/gram Lung ([2]; 4 weeks): 0.12 % Injected Dose/gram
% Injected Dose/gram Muscle ([2]; 4 weeks): 0.03 % Injected Dose/gram
% Injected Dose/gram Pancreas ([2]; 4 weeks): 0.03 % Injected Dose/gram
% Injected Dose/gram Salivary gland ([2]; 4 weeks): 0.05 % Injected Dose/gram
% Injected Dose/gram Small intestine ([2]; 4 weeks): 0.02 % Injected Dose/gram
% Injected Dose/gram Spleen ([2]; 4 weeks): 0.36 % Injected Dose/gram
% Injected Dose/gram Stomach ([2]; 4 weeks): 0.02 % Injected Dose/gram
% Injected Dose/gram Bladder ([2]; 6 weeks): 0.04 % Injected Dose/gram
% Injected Dose/gram Blood ([2]; 6 weeks): 0.00 % Injected Dose/gram
% Injected Dose/gram Heart ([2]; 6 weeks): 0.01 % Injected Dose/gram
% Injected Dose/gram Large intestine ([2]; 6 weeks): 0.02 % Injected Dose/gram
% Injected Dose/gram Liver ([2]; 6 weeks): 0.01 % Injected Dose/gram
% Injected Dose/gram Lung ([2]; 6 weeks): 0.05 % Injected Dose/gram
% Injected Dose/gram Muscle ([2]; 6 weeks): 0.02 % Injected Dose/gram
% Injected Dose/gram Pancreas ([2]; 6 weeks): 0.02 % Injected Dose/gram
% Injected Dose/gram Salivary gland ([2]; 6 weeks): 0.02 % Injected Dose/gram
% Injected Dose/gram Small intestine ([2]; 6 weeks): 0.01 % Injected Dose/gram
% Injected Dose/gram Spleen ([2]; 6 weeks): 0.10 % Injected Dose/gram
% Injected Dose/gram Stomach ([2]; 6 weeks): 0.01 % Injected Dose/gram
% Injected Dose/gram Bladder ([2]; 8 weeks): 0.01 % Injected Dose/gram
% Injected Dose/gram Blood ([2]; 8 weeks): 0.00 % Injected Dose/gram
% Injected Dose/gram Heart ([2]; 8 weeks): 0.00 % Injected Dose/gram
% Injected Dose/gram Large intestine ([2]; 8 weeks): 0.01 % Injected Dose/gram
% Injected Dose/gram Liver ([2]; 8 weeks): 0.00 % Injected Dose/gram
% Injected Dose/gram Lung ([2]; 8 weeks): 0.03 % Injected Dose/gram
% Injected Dose/gram Muscle ([2]; 8 weeks): 0.01 % Injected Dose/gram
% Injected Dose/gram Pancreas ([2]; 8 weeks): 0.01 % Injected Dose/gram
% Injected Dose/gram Salivary gland ([2]; 8 weeks): 0.01 % Injected Dose/gram
% Injected Dose/gram Small intestine ([2]; 8 weeks): 0.01 % Injected Dose/gram
% Injected Dose/gram Spleen ([2]; 8 weeks): 0.05 % Injected Dose/gram
% Injected Dose/gram Stomach ([2]; 8 weeks): 0.00 % Injected Dose/gram
% Injected Dose/gram Bladder ([2]; 10 weeks): 0.00 % Injected Dose/gram
% Injected Dose/gram Blood ([2]; 10 weeks): 0.00 % Injected Dose/gram
% Injected Dose/gram Heart ([2]; 10 weeks): 0.00 % Injected Dose/gram
% Injected Dose/gram Large intestine ([2]; 10 weeks): 0.00 % Injected Dose/gram
% Injected Dose/gram Liver ([2]; 10 weeks): 0.00 % Injected Dose/gram
% Injected Dose/gram Lung ([2]; 10 weeks): 0.00 % Injected Dose/gram
% Injected Dose/gram Muscle ([2]; 10 weeks): 0.00 % Injected Dose/gram
% Injected Dose/gram Pancreas ([2]; 10 weeks): 0.00 % Injected Dose/gram
% Injected Dose/gram Salivary gland ([2]; 10 weeks): 0.00 % Injected Dose/gram
% Injected Dose/gram Small intestine ([2]; 10 weeks): 0.00 % Injected Dose/gram
% Injected Dose/gram Spleen ([2]; 10 weeks): 0.01 % Injected Dose/gram
% Injected Dose/gram Stomach ([2]; 10 weeks): 0.00 % Injected Dose/gram
% Injected Dose/gram Bladder ([2]; 12 weeks): 0.00 % Injected Dose/gram
% Injected Dose/gram Blood ([2]; 12 weeks): 0.00 % Injected Dose/gram
% Injected Dose/gram Heart ([2]; 12 weeks): 0.00 % Injected Dose/gram
% Injected Dose/gram Large intestine ([2]; 12 weeks): 0.00 % Injected Dose/gram
% Injected Dose/gram Liver ([2]; 12 weeks): 0.00 % Injected Dose/gram
% Injected Dose/gram Lung ([2]; 12 weeks): 0.01 % Injected Dose/gram
% Injected Dose/gram Muscle ([2]; 12 weeks): 0.00 % Injected Dose/gram
% Injected Dose/gram Pancreas ([2]; 12 weeks): 0.00 % Injected Dose/gram
% Injected Dose/gram Salivary gland ([2]; 12 weeks): 0.00 % Injected Dose/gram
% Injected Dose/gram Small intestine ([2]; 12 weeks): 0.00 % Injected Dose/gram
% Injected Dose/gram Spleen ([2]; 12 weeks): 0.01 % Injected Dose/gram
% Injected Dose/gram Stomach ([2]; 12 weeks): 0.00 % Injected Dose/gram

O=C(O)CC[C@H](NC(=O)NC(CCCCNC(=O)c1ccc([211At])cc1)C(=O)O)C(=O)O (stereo partly drawn) [^211At-PSMA-6, (2S)-2-(3-(1-carboxy-5-(4-^211At-astatobenzamido)pentyl)ureido)-pentanedioic acid]
Maximum tolerated dose (MTD) ([3]; CD1 mice): 37 kBq
Dose-limiting toxicity [3]: dose-limiting late nephrotoxicity
Increase in median survival [4]: ~2 fold

[Cl][223Ra][Cl] [^223RaCl2]
Prolongation of survival (metastatic PC): 3 months

^111In-DTPA-hEGF: Auger RPT evaluated in a Phase I trial of epidermal growth factor receptor-positive metastatic breast cancer
MTD [5]: not reached
